The values below come from article PMC5342555, “ATAD2 is an epigenetic reader of newly synthesized histone marks during DNA replication” (Oncotarget, 2016).

The test system of one test is MCF7 cells. Kind of test: Cell growth, viable cells by AlamarBlue. To be noted: MCF7, 4 days after transfection, mean ± SD, n = 3. Type of test: cell-based.
The next test deals with HEK293 cells. Nature of the test: Isolation of proteins on nascent DNA (iPOND) after cycloheximide. The class given is cell-based. How it is done: iPOND was performed as previously described. Briefly, exponentially growing 1 x 10^8 of HEK 293 cells were incubated with 10 μM EdU (5-ethynyl-2'-deoxyuridine) and fixed in 1 % formaldehyde for 20 min at RT after 20 min (nascent chromatin) or chased for 2 h in fresh medium before fixation (mature chromatin). Crosslinking was stopped by addition of 0.125 M glycine and cells were permeabilized in 0.25 % Triton-X-100 for 30 min at RT followed by Click reaction to couple biotin to EdU. Cells were incubated in Click reaction buffer (0.01 mM biotin azide, 10 mM sodium ascorbate, 2 mM CuSO4 in PBS) for 1-2 h at RT with constant mixing. Cells were lysed in lysis buffer (1 % SDS in 50 mM Tris pH 8.0) and chromatin was solubilized by sonication in BIORUPTOR (Diagenode) for 4 min with medium frequency and 0.5 intervals at 4 °C. Biotinylated chromatin fragments were purified on streptavidine-dynabeads (ThermoFisher) by overnight end-over-end rotation at 4 °C. After stringent washing including once with 1 M NaCl the bound chromatin was released and crosslinking was reversed by boiling the beads in 2X LDS buffer for 40 min at 100 °C. Samples were dissolved in NuPAGE Bis-Tris gel and Western blot was performed.

In another test the test system is endogenous ATAD2. Kind of test: Peptide pull down from MCF7 nuclear extract. The class given is binding. To be noted: immobilized histone peptides, nuclear extract from MCF7 cells. How it is done:
H4 peptides (1-25) conjugated with Biotin was immobilized on Streptavidin-coupled Dynabeads for 2 hours at 4 °C and incubated with nuclear extract from MCF7 cells. Nuclear extract was prepared by first isolating nucleus in hypotonic buffer (10 mM Tris-HCl pH 8.5, 10 mM NaCl, 0.5 mM TCEP and 0.1 % NP-40) and disrupting nuclear envelop in high salt buffer (20 mM Tris-HCl pH 8.5, 420 mM NaCl, 0.5 mM TCEP, 0.1 % Triton X-100, 25 % Glycerol) for 2 hours at 4 °C. Soluble nuclear extract was harvested by centrifugation at 20000 g for 20 min and diluted to 1:3 in buffer without NaCl in order to achieve physiological salt concentration, 140 mM. The nuclear extract was incubated with the immobilized peptides on the Streptavidin-Dynabeads overnight at 4 °C. Next day, the beads were washed three times with washing buffer (20 mM Tris-HCl pH 8.5, 140 mM NaCl, 0.5 mM TCEP, 0.1 % Triton X-100, 25 % Glycerol) and twice with high salt buffer. Bound proteins were recovered by boiling the beads in 1X sample buffer for 5 min. at 95 °C and analyzed by SDS-PAGE and Western Blotting. For direct binding experiments 1 μM of immobilized histone peptides on Streptavidin-Dynabeads were incubated with indicated amounts of ligands for 2 hours at 4 °C. After stringent washing as described above, bound proteins were analyzed in Western Blotting.

The test system of the next test is GST-ATAD2-BD WT. Kind of test: TR-FRET binding of biotinylated peptides to WT bromodomain. Also noted: species or system human. The conditions noted are these: for interaction with WT BD (TR-FRET, Figure 5C): 10 nM GST-ATAD2-BD WT, peptides at 100 nM and 1 μM. How it is done: (§1) TR-FRET measurements of GST-ATAD2 BD^981-1108 binding to the biotinylated synthetic peptides (Anaspec and Biosyntan) described in Supplementary Table S1 (SI Materials and Methods) were basically carried out as described recently for BRD4. For binding and competition experiments the concentration of GST-ATAD2 was 10 nM. Biotinylated peptides were tested in binding experiments at 100 nM and 1 μM, whereas the biotinylated H4K12ac tracer ([…]-K(Ac)-[…]-Biotin) was used at 50 nM in competition assays. […] All assays were performed in 50 mM HEPES pH 7.5, 100 mM NaCl, 50 mM KF, 0.25 mM CHAPS, 0.05 % BSA and 1 mM DTT and protein-peptide equilibrium complexes were detected with 10 nM of Anti-GST-XL665 MAb conjugate (Cisbio) and 2.5 nM of SA-Eu3+ Chelate (Perkin Elmer) as TR-FRET acceptor and donor molecules respectively. Raw fluorescence signals were acquired with a Pherastar FS microtiter plate reader (BMG) with 337 nm (excitation), 622 nm (donor emission) and 665 nm (acceptor emission). HTRF® ratio values were calculated as defined in the instrument software and normalized with low and high controls whenever appropriate. Competition experiments were analyzed with a four parameter logistic equation as defined in the GraphPad analysis software (http://www.graphpad.com/guides/prism/6/curve-fitting).

A further test deals with GST-ATAD2-BD Mut. Kind of test: TR-FRET binding of biotinylated peptides to mutant bromodomain. Also noted: species or system human. The conditions noted are these: 10 nM GST-ATAD2-BD Mut. How it is done: as §1

“Also recorded” adds a separate entry of the source.

Take “5’-AGAUCACCCUCCUUAAAUAUU-3’ [PLK1]”: the “viable cells, fluorescence intensity normalized to control siRNA treated cells” value with MCF7 cells was 38.5%.
Take `C[C@@H]1C[C@@H]([C@H](O)CC2CC(=O)NC(=O)C2)C(=O)[C@@H](C)C1` [cycloheximide]: the “recruitment of ATAD2 to nascent chromatin” value in the test on HEK293 cells (HEK293, 250 μg/ml CHX […] before 10 μM EdU 20 min 37 °C, iPOND) was “abrogated”. The “newly synthesized histone H4 acetylated at K12 on nascent chromatin” value with HEK293 cells (HEK293, CHX […], iPOND) is recorded as “lost”. Besides, the “total level of ATAD2” value in the test on HEK293 cells (HEK293, CHX, Western blotting before crosslinking) is “unaffected”.
“H4 (1-25): biotinylated unmodified histone H4 peptide, AnaSpec Cat. No. 65242-1”: the “interaction with endogenous ATAD2 (pull down, Western blotting)” value in the test on endogenous ATAD2 was “not”.
Consider “H4K5,12diac (1-25): biotinylated histone H4 peptide di-acetylated at K5 and K12”, for which the “interaction with WT BD (TR-FRET, Figure 5C)” value (“interaction with WT BD” below) in the test with GST-ATAD2-BD WT is on record as “interact”. The “interaction with mutant BD (TR-FRET, Figure 5C)” value (“interaction with mutant BD” below) in the test on GST-ATAD2-BD Mut was “not with mutant BD”. For the same molecule, the “interaction with endogenous ATAD2 (pull down, Western blotting)” value in the test with endogenous ATAD2 was “interacts”.
“H4K5/8/12/16ac (1-25): biotinylated histone H4 peptide acetylated at K5,8,12,16, AnaSpec Cat. No. 65248-1”: the “interaction with WT BD” value with GST-ATAD2-BD WT is given as “interact”. Moreover, in the test with GST-ATAD2-BD Mut, the “interaction with mutant BD” value was “not with mutant BD”.
For “H4K5ac (1-25): biotinylated histone H4 peptide acetylated at K5, AnaSpec Cat. No. 65229-1” the same measures were “strong binding; also recorded: interact” and “not with mutant BD”.
As for “H4K12ac (1-25): biotinylated histone H4 peptide acetylated at K12, AnaSpec Cat. No. 65208-1”, the “interaction with WT BD” value in the test on GST-ATAD2-BD WT is given as “strong binding; also recorded: interact”. Also, in the test with GST-ATAD2-BD WT (1 μM biotin-labelled peptide, 10 nM GST-ATAD2 BD, GST as control), the “interaction with BD of ATAD2 (TR-FRET, Figure 5B)” value was “strong interaction”. Also, in the test with GST-ATAD2-BD Mut, the “interaction with mutant BD” value was “not with mutant BD”.
